The target in one data set is T1, GIPR (Homo sapiens, UniProt P48546).
T1 sequence (P48546 22-466): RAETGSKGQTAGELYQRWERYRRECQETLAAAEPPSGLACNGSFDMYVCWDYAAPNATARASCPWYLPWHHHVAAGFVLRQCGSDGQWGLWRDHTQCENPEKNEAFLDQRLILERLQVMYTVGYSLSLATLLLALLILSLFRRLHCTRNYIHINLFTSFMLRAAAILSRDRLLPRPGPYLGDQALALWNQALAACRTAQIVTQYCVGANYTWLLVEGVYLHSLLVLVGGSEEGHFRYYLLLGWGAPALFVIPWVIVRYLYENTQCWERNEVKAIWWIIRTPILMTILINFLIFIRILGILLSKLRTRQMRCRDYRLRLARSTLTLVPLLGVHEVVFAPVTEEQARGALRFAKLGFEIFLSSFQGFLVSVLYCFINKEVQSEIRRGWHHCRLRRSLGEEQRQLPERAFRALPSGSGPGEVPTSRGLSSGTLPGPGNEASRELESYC
The data set can be described thus: Schild analysis of FFA release in hMADS with GIPR antagonist. In kind it is cell-based.

The subject of another data set is hMADS cells. The data set can be described thus: mRNA expression by RT-qPCR in hMADS. The conditions noted are these: in the presence of 10 nM insulin, 24 h. The class given is cell-based, human. A general note: Quantitative PCR measures a nucleic acid by following its amplification.
For data set [1] the following is noted: healthy individuals, degradation by dipeptidyl peptidase 4; cited from earlier work.
The test system of a further data set is white hMADS cells. The data set can be described thus: Lipolysis assay. The conditions noted are these: for FFA release after pretreatment with adenylyl cyclase inhibitor SQ22536: white hMADS. The class given is cell-based, human.
For data set [2], the target named is human insulin receptor/ CD220 (28-944) protein (Homo sapiens, UniProt P06213). The data set can be described thus: Surface plasmon resonance, immobilised biotinylated peptide, INSR injected. In kind it is binding. The conditions noted are these: biotinylated peptide on Sensor Chip SA. (SPR reads the build-up and loss of mass on a sensor chip optically.)
Chain of human insulin receptor/ CD220 (28-944) protein (P06213 28-944 isoform P06213-2): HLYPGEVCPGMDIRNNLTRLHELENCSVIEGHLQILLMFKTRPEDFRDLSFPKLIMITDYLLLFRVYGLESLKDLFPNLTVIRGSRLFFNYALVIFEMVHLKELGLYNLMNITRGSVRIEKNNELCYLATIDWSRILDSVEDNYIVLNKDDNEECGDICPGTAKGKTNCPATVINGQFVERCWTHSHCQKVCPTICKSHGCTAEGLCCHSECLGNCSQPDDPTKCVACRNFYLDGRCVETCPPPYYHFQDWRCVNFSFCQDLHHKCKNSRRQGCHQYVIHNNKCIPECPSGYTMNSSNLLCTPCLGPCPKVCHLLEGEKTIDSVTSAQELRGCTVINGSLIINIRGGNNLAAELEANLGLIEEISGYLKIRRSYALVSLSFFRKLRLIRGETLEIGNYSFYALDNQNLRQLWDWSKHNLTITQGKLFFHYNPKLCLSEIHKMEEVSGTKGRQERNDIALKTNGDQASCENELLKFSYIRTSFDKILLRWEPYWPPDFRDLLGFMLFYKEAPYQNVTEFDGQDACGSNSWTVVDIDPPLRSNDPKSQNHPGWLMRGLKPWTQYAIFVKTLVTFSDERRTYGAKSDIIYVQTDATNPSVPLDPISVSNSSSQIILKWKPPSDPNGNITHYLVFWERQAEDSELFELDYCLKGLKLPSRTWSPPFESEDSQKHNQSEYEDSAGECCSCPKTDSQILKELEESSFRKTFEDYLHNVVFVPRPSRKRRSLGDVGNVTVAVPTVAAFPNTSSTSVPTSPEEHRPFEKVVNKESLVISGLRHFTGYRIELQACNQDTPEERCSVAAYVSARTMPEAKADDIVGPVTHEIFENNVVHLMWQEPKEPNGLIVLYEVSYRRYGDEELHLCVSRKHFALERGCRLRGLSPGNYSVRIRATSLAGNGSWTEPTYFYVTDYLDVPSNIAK

Turning to `CCCCCCCCCCCCCCCC(=O)N[C@@H](CCC(=O)NCCCC[C@H](NC(=O)[C@H](Cc1ccc(O)cc1)NC(=O)[C@H](CC(=O)O)NC(=O)[C@H](CO)NC(=O)[C@@H](NC(=O)[C@H](Cc1ccccc1)NC(=O)[C@@H](NC(C)=O)[C@@H](C)O)[C@@H](C)CC)C(=O)N[C@H](C(=O)N[C@@H](C)C(=O)N[C@@H](CC(C)C)C(=O)N[C@@H](CC(=O)O)C(=O)N[C@@H](CCCCN)C(=O)N[C@H](C(=O)N[C@@H](CCCNC(=N)N)C(=O)N[C@@H](CCC(N)=O)C(=O)N[C@@H](CCC(N)=O)C(=O)N[C@@H](CCC(=O)O)C(=O)N[C@@H](Cc1ccccc1)C(=O)N[C@H](C(=O)N[C@@H](CC(N)=O)C(=O)N[C@@H](Cc1c[nH]c2ccccc12)C(=O)N[C@@H](CC(C)C)C(=O)N[C@@H](CC(C)C)C(=O)N[C@@H](C)C(=O)N[C@@H](CCC(N)=O)C(=O)N[C@@H](CCCCN)C(=O)NCC(N)=O)C(C)C)[C@@H](C)CC)[C@@H](C)CC)C(=O)O` [GIPR antagonist], at GIPR, the “effect on lipolysis induced by 1 µM isoprenaline” value is reported as “remains unchanged”.
In the case of `COc1cc([C@@H]2c3cc4c(cc3[C@H](O)[C@H]3COC(=O)[C@@H]23)OCO4)cc(OC)c1OC` [PPP, Picropodophyllin], the “expression of FASN” value in the data set on hMADS cells is reported as “significantly lower”.
The EC50 is the concentration giving half of the maximal effect. As for `CC[C@H](C)[C@H](NC(=O)[C@H](CO)NC(=O)[C@H](Cc1ccc(O)cc1)NC(=O)[C@H](CC(=O)O)NC(=O)[C@H](CO)NC(=O)[C@@H](NC(=O)[C@H](Cc1ccccc1)NC(=O)[C@@H](NC(=O)CNC(=O)[C@H](CCC(=O)O)NC(=O)[C@H](C)NC(=O)[C@@H](N)Cc1ccc(O)cc1)[C@@H](C)O)[C@@H](C)CC)C(=O)N[C@@H](C)C(=O)N[C@@H](CCSC)C(=O)N[C@@H](CC(=O)O)C(=O)N[C@@H](CCCCN)C(=O)N[C@H](C(=O)N[C@@H](Cc1c[nH]cn1)C(=O)N[C@@H](CCC(N)=O)C(=O)N[C@@H](CCC(N)=O)C(=O)N[C@@H](CC(=O)O)C(=O)N[C@@H](Cc1ccccc1)C(=O)N[C@H](C(=O)N[C@@H](CC(N)=O)C(=O)N[C@@H](Cc1c[nH]c2ccccc12)C(=O)N[C@@H](CC(C)C)C(=O)N[C@@H](CC(C)C)C(=O)N[C@@H](C)C(=O)N[C@@H](CCC(N)=O)C(=O)N[C@@H](CCCCN)C(=O)NCC(=O)N[C@@H](CCCCN)C(=O)N[C@@H](CCCCN)C(=O)N[C@@H](CC(N)=O)C(=O)N[C@@H](CC(=O)O)C(=O)N[C@@H](Cc1c[nH]c2ccccc12)C(=O)N[C@@H](CCCCN)C(=O)N[C@@H](Cc1c[nH]cn1)C(=O)N[C@@H](CC(N)=O)C(=O)N[C@H](C(=O)N[C@H](C(=O)N[C@@H](CCC(N)=O)C(=O)O)[C@@H](C)O)[C@@H](C)CC)C(C)C)[C@@H](C)CC` [hGIP], the half-life entry in data set [1] is listed as “approximately 7 minutes”. Also, the “FFA release in hMADS treated with GIPR siRNA vs siNC” value with white hMADS cells (GIPR knockdown approximately 40%) is reported as “significantly reduced”. For the same molecule, in the data set on white hMADS cells (read-out: EC50, FFA release read-out, hMADS cells), the EC50 turned out to be 1.1 nM.
In the case of `CC(C)NCC(O)c1ccc(O)c(O)c1` (centres unmarked) [isoprenaline], the “FFA release after pretreatment with adenylyl cyclase inhibitor SQ22536” value in the data set with white hMADS cells was “inhibited”.
For the molecule Ac-PKMVPQFNTELKIFPEVNIK-NH2 [SP34], in data set [2], the “binding of insulin receptor to immobilised peptide” value is “does not exhibit binding”.
On to brain natriuretic peptide [BNP], for which the “FFA release after pretreatment with adenylyl cyclase inhibitor SQ22536” value with white hMADS cells is reported as “remains unaffected”.
